Target: T1, A. aeolicus TsaD2B2 (TsaD-TsaB) (Aquifex aeolicus, UniProt O66986)
T1 construct: recombinant from E. coli; co-expressed (pET21a-BC10_DZop), C-terminal 6His on TsaB; tetramer; Cys10 of TsaD oxidized (CSO10) in crystals; with tRNA threonylcarbamoyladenosine biosynthesis protein TsaB
Assay: LC-MS of tRNA t6A formation
Type: biochemical
Details: isolated TC-AMP 30 uM, EDTA-dialyzed TsaD2B2 plus MgCl2, FeCl2 or ZnCl2 100 uM, 60 uM tRNA-Lys(UUU), no TsaE

T1 sequence (O66494 entry or part of it): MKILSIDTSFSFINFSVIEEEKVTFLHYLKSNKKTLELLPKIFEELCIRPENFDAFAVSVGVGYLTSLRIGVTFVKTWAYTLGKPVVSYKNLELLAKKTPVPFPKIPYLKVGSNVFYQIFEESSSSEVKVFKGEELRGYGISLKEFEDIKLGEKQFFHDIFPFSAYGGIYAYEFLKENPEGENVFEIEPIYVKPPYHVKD
T1 sequence (O66986 whole entry): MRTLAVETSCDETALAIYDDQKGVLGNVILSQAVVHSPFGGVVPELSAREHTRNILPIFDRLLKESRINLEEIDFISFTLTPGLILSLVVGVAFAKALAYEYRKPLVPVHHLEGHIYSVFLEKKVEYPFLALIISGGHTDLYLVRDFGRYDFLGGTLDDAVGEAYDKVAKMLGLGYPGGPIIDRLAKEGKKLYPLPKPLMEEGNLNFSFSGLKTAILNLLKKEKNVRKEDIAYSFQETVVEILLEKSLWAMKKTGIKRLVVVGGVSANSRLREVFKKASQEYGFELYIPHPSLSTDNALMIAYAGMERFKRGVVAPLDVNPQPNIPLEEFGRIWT

C[C@@H](O)[C@H](NC(=O)OP(=O)(O)OC[C@H]1O[C@@H](n2cnc3c(N)ncnc32)[C@H](O)[C@@H]1O)C(=O)O [TC-AMP]
LC-MS of tRNA t6A formation: we only used EDTA-dialyzed TsaD2B2, HPLC-purified TC-AMP, and SEC-purified IVT tRNA^LysUUU

— PMC11648230, “Structure–function analysis of tRNA t^6A-catalysis, assembly, and thermostability of Aquifex aeolicus TsaD2B2 tetramer in complex with TsaE” (The Journal of Biological Chemistry, 2024)
